Data on two molecules can be found in US20190076507A1, “Artificial Red Blood Cell Having Ability to Inhibit Conversion of Hemoglobin into Methemoglobin” (Public University Corporation Nara Medical University, priority 2016, published 2019).

Holding throughout (type): biochemical
The nature of series [1]: Catalase (pseudo CAT) activity from change of absorbance at 230 nm of H2O2. The method, then:
(§1) The activity of NADH-cytochrome b5 reductase in the above-mentioned purified and concentrated HbCO solution was determined as NADH-ferricyanide reductase activity according to Beutler, E. above. Diluted Hb samples comprising the enzyme to be measured is mixed with a buffer comprising NADH. The mixed solutions were left standing for 10 minutes at 30° C., and then potassium ferricyanide (K3Fe (CN)6), the enzyme substrate, was added to start the enzyme reaction. The decrease of difference of absorbance at 340 nm, a characteristic absorption of NADH, per minute was measured to determine activity unit E (IU/gHb). […] It was reasoned that the heat-labile NADH-cytochrome b5 reductase was eliminated as denatured and insoluble, or denatured and inactivated, due to the introduction of heat treatment during the purifying step. In addition, activities of NADPH metHb reductase and NADPH diaphorase, which correspond to NADPH-flavin reductase are also determined by the above-mentioned methods according to Beutler, E. Diluted blood samples comprising the enzyme to be measured is mixed with a buffer comprising NADPH. The mixed solutions were left standing for 10 minutes at 37° C., and then methylene bleu (MeBl), the enzyme substrate, was added to start the enzyme reaction. The decrease of difference of absorbance at 340 nm, a characteristic absorption of NADPH, per minute was measured to determine activity unit E (IU/gHb). […] Catalase activity of the purified HbCO solution was determined from the change of the absorbance at 230 nm, the absorption wavelength of H2O2, according to Beutler, E. (RED CELL METABOLISM: A MANUAL OF BIOCHEMICAL METHOD, Grune &Stratton, Inc. pp. 105-106 (1987)). […] Pyrogallol was used for measurement of SOD activity (Marklund, S. and Marklund, G., Eur. J. Biochem. 47, 469-474 (1974); Roth, E. F. Jr. and Gilbert, H. S., Anal. Biochem. 137, 50-53(1984)). Pyrogallol is oxidized with oxygen to generate superoxide, and further reacted to generate a yellow dye with absorbance at 420 nm. SOD inhibits this reaction. SOD enzyme activity was determined based on this inhibitory activity. Analyzed specimens were solutions of purified HbO2, HbCO, metHb and solutions thereof further comprising NADH or L-tyrosine In addition, enzyme activity of crude SFHb solution was also determined as a control. […] When NADH and HbO2 were coexisted, however, high CAT and SOD pseudo activities (Table 1). […] The pseudo activity was detected when NADH alone was present, however, the activity was about a tenth ( 1/10) compared with when HbO2 was coexisted. […] There were results showing that this pseudo activity increased as more NADH was added.

A short description of series [2]: SOD (pseudo SOD) activity, pyrogallol method. The conditions noted are these: ratio. The method, then:
as §1

In series [3] the target is T1, HbO2 (Homo sapiens, UniProt P68871+P69905).
T1 construct: The Hb released by hemolysis was filtered and collected, with the red blood cell membrane components (stroma) separated and removed; from tissue; host or cells: human red blood cells (expired donated blood); heat-treated, nanofiltered, purified and concentrated HbCO, photoconverted to HbO2
The series is described as follows: Screening of suppressing effect of compounds against autoxidation of HbO2. The conditions noted are these: HbO2 10 g/dL, antioxidant 1 g/dL, 37° C., 24 hours. The method, then:
NADH was purchased from Oriental Yeast Co. Ltd., and all the rest were purchased from Sigma-Aldrich (St. Louis, Mo., USA). HbCO solution was transferred to an eggplant flask and irradiated with visible light (halogen lamp; LPL Videeoligtvl-302, LPLCO. Ltd., Tokyo, Japan) under oxygen gas flow to convert to HbO2. […] The conversion ratios to metHb were determined from the visible absorption spectrum. The measurement of spectrum between 300 nm to 500 nm was conducted using a spectrophotometer (V-660, Japan Spectroscopic Company (JASCO)) mounted with a device to control the light scattering to the minimum (an integrating sphere). The atmosphere inside of a Thunberg cuvette was replaced with nitrogen gas and the conversion ratios to metHb were determined from the ratios of absorbance at 405 nm (λmax of metHb) and 430 nm (λmax of deoxyHb).

Series [4] deals with T1, HbO2. In words: Oxidant-promoted metHb conversion in non-encapsulated HbO2 solution with NADH (absorbance at 630 nm). The following applies: 10 and 40 minutes, vs no NADH. The method, then:
To examine the suppression of Hb oxidation by encapsulation of NADH further in detail, similar experiments were carried out for Hb solution which was not encapsulated.
(1) First, metHb conversion supplemented with NOC7 was studied. To a cuvette with an optical path length of 1 cm, 3 mL of phosphate buffered saline, 30 μL of HbO2 solution (1.5 mM), 30 μL of NADH solution (1.5 mM) and 30 μL of NOC (1.5 mM in PBS) were mixed and the change of absorbance at 630 nm, the absorption wavelength of metHb, at 25° C. was immediately monitored for 10 minutes and for 40 minutes (FIGS. 6A and 6B). In the graphs of FIGS. 6A and 6B, the absorbance at 630 nm was put on the vertical axis and incubation time (second) was put on the horizontal axis. The three lines in FIG. 6A represent a change over time of metHb when the solution comprising HbO2 and NADH was supplemented with NOC7 (HbO2+NADH+NOC7), a change over time of metHb when the solution comprising HbO2 but not NADH was supplemented with NOC7 (HbO2+NOC7) and a change over time of metHb when the solution comprising HbO2 was neither supplemented with NADH nor NOC7 (HbO2+water). […] To a cuvette with an optical path length of 1 cm, 3 mL of PBS, 30 μL of HbO2 solution (1.5 mM), 30 μL of NADH solution (1.5 mM) and 30 μL of H2O2 (1.5 mM) were mixed and the change of absorbance at 630 nm at 25° C. was immediately monitored for 10 minutes and for 40 minutes (FIGS. 7A and 7B). In the graphs of FIGS. 7A and 7B, the absorbance at 630 nm was put on the vertical axis and incubation time (second) was put on the horizontal axis. […] To a cuvette with an optical path length of 1 cm, 3 mL of PBS, 30 μL of HbO2 solution (1.5 mM), 30 μL of NADH solution (1.5 mM) and 30 μL of NaNO2 (1.5 mM in PBS) were mixed and the change of absorbance at 630 nm at 25° C. was immediately monitored for 10 minutes and for 40 minutes (FIGS. 8A and […]). In the graphs of FIGS. 8A and […], the absorbance at 630 nm was put on the vertical axis and incubation time (second) was put on the horizontal axis. […]

In series [5] the target is T2, NADH-cytochrome b5 reductase (Homo sapiens, UniProt P00387).
T2 construct: from tissue; host or cells: human red blood cells (expired donated blood), crude stroma-free haemolysate (SFHb)
T2 sequence (P00387 1-278 isoform P00387-2): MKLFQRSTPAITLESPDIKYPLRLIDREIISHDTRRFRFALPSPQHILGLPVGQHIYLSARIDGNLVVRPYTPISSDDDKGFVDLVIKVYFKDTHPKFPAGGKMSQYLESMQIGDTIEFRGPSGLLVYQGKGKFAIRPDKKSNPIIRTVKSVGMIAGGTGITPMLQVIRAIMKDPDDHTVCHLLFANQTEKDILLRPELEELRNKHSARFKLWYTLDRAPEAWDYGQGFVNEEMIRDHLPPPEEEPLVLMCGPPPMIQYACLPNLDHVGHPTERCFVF
The series is described as follows: NADH-cytochrome b5 reductase activity determined as NADH-ferricyanide reductase activity. The conditions noted are these: 30° C., potassium ferricyanide substrate, decrease of absorbance at 340 nm. The method, then: For the enzyme for reducing metHb herein, “substantially free of enzyme activity” means that the enzyme activity is 10%, 5%, 3%, 1%, 0.5%, 0.2%, 0.1%, 0.05% or 0.03% or less, or below detectable limits, of enzyme activity of the enzyme for reducing metHb existing in the Hb solution purified and concentrated from blood derived from humans or domestic animals. The enzyme activity of the enzyme for reducing metHb herein disclosed herein is determined, for example, by the following procedure. Determination of NADH-cytochrome b5 reductase may be carried out according to Beutler, E. (RED CELL METABOLISM: A MANUAL OF BIOCHEMICAL METHOD, Grune &Stratton, Inc., pp. 81-82 (1987)). […]
the enzyme activity is measured by tracing the degree of acceleration by adding sample comprising oxygen. The measurement is carried out by measuring the change (decrease) in absorbance at 340 nm which is the characteristic absorption of the consumed NADH.
The activity of NADH-cytochrome b5 reductase in the above-mentioned purified and concentrated HbCO solution was determined as NADH-ferricyanide reductase activity according to Beutler, E. above. Diluted Hb samples comprising the enzyme to be measured is mixed with a buffer comprising NADH. […] The decrease of difference of absorbance at 340 nm, a characteristic absorption of NADH, per minute was measured to determine activity unit E (IU/gHb). […]

For a further series, the target named is T3, NADPH-flavin reductase (Homo sapiens, UniProt P30043).
T3 construct: from tissue; host or cells: human red blood cells (expired donated blood), crude stroma-free haemolysate (SFHb)
T3 sequence (P30043 1-206): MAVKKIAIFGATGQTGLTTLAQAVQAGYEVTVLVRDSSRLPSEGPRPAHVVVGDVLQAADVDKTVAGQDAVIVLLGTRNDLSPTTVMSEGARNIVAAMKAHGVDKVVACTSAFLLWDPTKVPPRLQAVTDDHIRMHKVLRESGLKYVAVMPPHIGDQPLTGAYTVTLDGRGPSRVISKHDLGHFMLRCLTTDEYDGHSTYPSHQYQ
The series is described as follows: NADPH metHb reductase / NADPH diaphorase (NADPH-flavin reductase) activity with methylene blue. The following applies: 37° C., methylene blue substrate, decrease of absorbance at 340 nm. The method, then: Determination of NADPH-flavin reductase activity may be carried out according to Beutler, E. (RED CELL METABOLISM: A MANUAL OF BIOCHEMICAL METHOD, Grune &Stratton, Inc., pp. 79-80 (1987)). The principle of determination of this method is to measure […]. The reaction of reducing methylene bleu (MeBl) to leucomethylene blue (LeukMeBl) as follows:
NADPH+H^++MeBl→NADP^++LeukMeBl
the reaction is known to be slow. The enzyme activity is measured by tracing the degree of acceleration by adding sample comprising oxygen. The measurement is carried out based on the above-mentioned principle by measuring the change (decrease) in absorbance at 340 nm which is the characteristic absorption of the consumed NADPH.
The activity of NADH-cytochrome b5 reductase in the above-mentioned purified and concentrated HbCO solution was determined as NADH-ferricyanide reductase activity according to Beutler, E. above. Diluted Hb samples comprising the enzyme to be measured is mixed with a buffer comprising NADH. […] The decrease of difference of absorbance at 340 nm, a characteristic absorption of NADH, per minute was measured to determine activity unit E (IU/gHb). […] The decrease of difference of absorbance at 340 nm, a characteristic absorption of NADPH, per minute was measured to determine activity unit E (IU/gHb). […]

T1 sequence (P69905 2-142 limits assumed): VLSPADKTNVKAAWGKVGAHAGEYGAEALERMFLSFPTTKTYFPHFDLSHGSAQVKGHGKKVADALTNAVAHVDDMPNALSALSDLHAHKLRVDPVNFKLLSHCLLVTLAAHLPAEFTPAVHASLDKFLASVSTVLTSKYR
T1 sequence (P68871 2-147 limits assumed): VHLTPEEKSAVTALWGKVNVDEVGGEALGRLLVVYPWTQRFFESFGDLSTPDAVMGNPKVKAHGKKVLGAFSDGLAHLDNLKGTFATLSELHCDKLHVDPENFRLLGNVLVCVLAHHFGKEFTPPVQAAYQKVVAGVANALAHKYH

`NC(=O)C1=CN([C@@H]2O[C@H](COP(=O)(O)OP(=O)(O)OC[C@H]3O[C@@H](n4cnc5c(N)ncnc54)[C@H](O)[C@@H]3O)[C@@H](O)[C@H]2O)C=CC1` [NADH, nicotinamide adenine dinucleotide (NADH)]: the “CAT pseudo activity of NADH alone compared with when HbO2 was coexisted” value in series [1] (ratio) is 1/10. In addition, the “SOD pseudo activity of NADH alone compared with when HbO2 was coexisted” value in series [2] is 1/10. At HbO2 [3], the “metHb conversion (%)” value is 17%. The “increase of metHb-specific absorbance at 630 nm” value on HbO2 [4] (HbO2 solution + H2O2, 25° C.) is recorded as “remarkably suppressed”; on HbO2 [4] (HbO2 solution + NOC7, 25° C.), “remarkably suppressed”; on HbO2 [4] (HbO2 solution + NaNO2, 25° C.), “remarkably suppressed”.

As to “purified and concentrated Hb: human Hb purified with heat treatment (60° C., 12 hours) and nanofiltration, concentrated to 40 to 42 g/dL”, the results for the “NADH-cytochrome b5 reductase activity (activity unit E)” value in series [5] and in series [5] (listed as Hb solution) were “did not detect any activity” and “does not show enzymatic activities”, respectively. In addition, the “NADPH metHb reductase / NADPH diaphorase (NADPH-flavin reductase) activity (activity unit E)” value is “below 0.01 IU/gHb” with NADPH-flavin reductase and “does not show enzymatic activities” with NADPH-flavin reductase (listed as Hb solution). Besides, in series [1] (change of absorbance at 230 nm of H2O2, Example 1), the Catalase activity was ≤ 0.03×10^4 IU/gHb.
